Experimental findings from patent US20250179051A1, “PYRIMIDINLY-OXY-QUINOLINE BASED HERBICIDAL COMPOUNDS” (SYNGENTA CROP PROTECTION AG, priority 2022, published 2025) are described below.

What all share (format): in vivo
Common to all, as to details: 250 g/ha, evaluated after 13 days, five-point scale

Assay [1] relates to Setaria faberi (SETFA). The assay is described as follows: Post-emergence herbicide glasshouse test. An outline of the steps:
(§1)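 Spray at 250 g/ha (unless stated), acetone/water 50:50 + 0.5% Tween 20; pre-em 1 d post-sowing, post-em after 8 d growth. Glasshouse 24/16 °C, 14 h light, 65% RH, watered twice daily. % damage read at 13 d, scored 1 (0–20%) to 5 (81–100%).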

The subject of assay [2] is Ipomoea hederacea (IPOHE). Kind of assay: Post-emergence herbicide glasshouse test. An outline of the steps: as §1
For assay [3], the system named is Amaranthus palmeri (AMAPA). Kind of assay: Post-emergence herbicide glasshouse test. An outline of the steps:
as §1

For assay [4], the system named is Amaranthus retoflexus (AMARE). Kind of assay: Post-emergence herbicide glasshouse test. An outline of the steps:
as §1

Assay [5] deals with Echinochloa crus-galli (ECHCG). The assay is described as follows: Post-emergence herbicide glasshouse test. An outline of the steps: as §1
The test system of assay [6] is Setaria faberi (SETFA). Kind of assay: Pre-emergence herbicide glasshouse test. An outline of the steps:
as §1

Assay [7] concerns Ipomoea hederacea (IPOHE). Kind of assay: Pre-emergence herbicide glasshouse test. An outline of the steps: as §1
Assay [8] relates to Amaranthus palmeri (AMAPA). Kind of assay: Pre-emergence herbicide glasshouse test. An outline of the steps: as §1
Assay [9] concerns Amaranthus retoflexus (AMARE). Kind of assay: Pre-emergence herbicide glasshouse test. An outline of the steps: as §1
Assay [10] deals with Echinochloa crus-galli (ECHCG). Kind of assay: Pre-emergence herbicide glasshouse test. An outline of the steps: as §1

Regarding `CCO/N=C\CCc1nc(C(F)(F)F)nc2cccc(Oc3ncc(Cl)cn3)c12` [Compound 1.047], the “percentage damage caused to the plant, SETFA” value in the assay with Setaria faberi (SETFA) [1] and with Setaria faberi (SETFA) [6] was 5 (5=81-100%) in each case. Moreover, the results for the “percentage damage caused to the plant, IPOHE” value in assay [2] and in assay [7] were 5 (5=81-100%) and 2 (2=21-40%), respectively. The “percentage damage caused to the plant, AMAPA” value in assay [3] and in assay [8] was 4 (4=61-80%) each time. Moreover, the “percentage damage caused to the plant, AMARE” value is reported as 5 (5=81-100%) in [4] and 4 (4=61-80%) in assay [9]. Further, the “percentage damage caused to the plant, ECHCG” value in assay [5] and in assay [10] was 5 (5=81-100%) throughout.

As to `FC(F)(F)c1nc(CBr)c2c(Oc3ncc(Cl)cn3)cccc2n1` [Compound 1.048, 4-(bromomethyl)-5-(5-chloropyrimidin-2-yl)oxy-2-(trifluoromethyl)quinazoline], the “percentage damage caused to the plant, SETFA” value in the assay with Setaria faberi (SETFA) [1] and with Setaria faberi (SETFA) [6] was 4 (4=61-80%) in each case. Also, the “percentage damage caused to the plant, IPOHE” value in assay [2] is reported as 2 (2=21-40%); in assay [7], 1 (1=0-20%). The “percentage damage caused to the plant, AMAPA” value in assay [3] is 4 (4=61-80%); in assay [8], 5 (5=81-100%). Further, the “percentage damage caused to the plant, AMARE” value in assay [4] and in assay [9] was 5 (5=81-100%) in each case. Also, the “percentage damage caused to the plant, ECHCG” value in [5] is listed as 2 (2=21-40%); in [10] it was 3 (3=41-60%).

`Cc1ccc(Oc2ncc(Cl)cn2)c2c(CCC3CC3)nc(C(F)(F)F)nc12` [Compound 1.059]: the “percentage damage caused to the plant, SETFA” value in the assay on Setaria faberi (SETFA) [1] and with Setaria faberi (SETFA) [6] was 1 (1=0-20%) throughout. For the same compound, the “percentage damage caused to the plant, IPOHE” value is 3 (3=41-60%) in assay [2] and 1 (1=0-20%) in assay [7]. Also, the entries for the “percentage damage caused to the plant, AMAPA” value in assay [3] and in assay [8] were 2 (2=21-40%) and 1 (1=0-20%), respectively. Besides, the “percentage damage caused to the plant, AMARE” value in assay [4] is recorded as 2 (2=21-40%); in assay [9] it was 1 (1=0-20%). The “percentage damage caused to the plant, ECHCG” value in assay [5] and in assay [10] was 1 (1=0-20%) each time.

For `FC(F)(F)c1nc(CCC2CC2)c2c(Oc3ncc(Cl)cn3)ccc(Br)c2n1` [Compound 1.060], the “percentage damage caused to the plant, SETFA” value with Setaria faberi (SETFA) [1] and in the assay on Setaria faberi (SETFA) [6] was 2 (2=21-40%) in each case. Besides, the entries for the “percentage damage caused to the plant, IPOHE” value in [2] and in assay [7] were 3 (3=41-60%) and 1 (1=0-20%), respectively. In addition, the “percentage damage caused to the plant, AMAPA” value in assay [3] is recorded as 3 (3=41-60%); in assay [8], 2 (2=21-40%). The “percentage damage caused to the plant, AMARE” value in assay [4] was 3 (3=41-60%); in assay [9], 1 (1=0-20%). The “percentage damage caused to the plant, ECHCG” value in assay [5] and in assay [10] was 1 (1=0-20%) in each case.

`CC(=NOCC1CC1)c1nc(C(F)(F)F)nc2cccc(Oc3ncc(Cl)cn3)c12` [Compound 1.065]: the “percentage damage caused to the plant, SETFA” value in the assay on Setaria faberi (SETFA) [1] and in the assay with Setaria faberi (SETFA) [6] was 1 (1=0-20%) each time. Also, the “percentage damage caused to the plant, IPOHE” value in assay [2] and in assay [7] was 1 (1=0-20%) each time. Besides, the “percentage damage caused to the plant, AMAPA” value is recorded as 2 (2=21-40%) in [3] and 1 (1=0-20%) in assay [8]. The “percentage damage caused to the plant, AMARE” value is recorded as 2 (2=21-40%) in assay [4] and 1 (1=0-20%) in assay [9]. The “percentage damage caused to the plant, ECHCG” value in [5] and in [10] was 1 (1=0-20%) in each case.

With `CON=C(C)c1nc(C(F)(F)F)nc2cccc(Oc3ncc(Cl)cn3)c12` [Compound 1.066], the “percentage damage caused to the plant, SETFA” value with Setaria faberi (SETFA) [1] and in the assay with Setaria faberi (SETFA) [6] was 1 (1=0-20%) in each case. Moreover, the “percentage damage caused to the plant, IPOHE” value in assay [2] and in [7] was 1 (1=0-20%) throughout. Also, the results for the “percentage damage caused to the plant, AMAPA” value in [3] and in assay [8] were 2 (2=21-40%) and 4 (4=61-80%), respectively. The “percentage damage caused to the plant, AMARE” value in assay [4] and in assay [9] was 1 (1=0-20%) each time. The “percentage damage caused to the plant, ECHCG” value in assay [5] and in [10] was 1 (1=0-20%) each time.

`C=CCON=CCCc1nc(C(F)(F)F)nc2cccc(Oc3ncc(Cl)cn3)c12` [Compound 1.067]: the “percentage damage caused to the plant, SETFA” value in the assay with Setaria faberi (SETFA) [1] and with Setaria faberi (SETFA) [6] was 5 (5=81-100%) each time. The “percentage damage caused to the plant, IPOHE” value in [2] is 3 (3=41-60%); in assay [7], 1 (1=0-20%). For the same compound, the “percentage damage caused to the plant, AMAPA” value in assay [3] and in assay [8] was 5 (5=81-100%) in each case. For the same compound, the “percentage damage caused to the plant, AMARE” value is given as 4 (4=61-80%) in [4] and 3 (3=41-60%) in assay [9]. Further, the “percentage damage caused to the plant, ECHCG” value in assay [5] is listed as 4 (4=61-80%); in [10], 5 (5=81-100%).

In the case of `FC(F)(F)c1nc(CCC=NOCC2CC2)c2c(Oc3ncc(Cl)cn3)cccc2n1` [Compound 1.068], the “percentage damage caused to the plant, SETFA” value in the assay with Setaria faberi (SETFA) [1] and with Setaria faberi (SETFA) [6] was 5 (5=81-100%) throughout. The “percentage damage caused to the plant, IPOHE” value in assay [2] and in [7] was 1 (1=0-20%) each time. Also, the “percentage damage caused to the plant, AMAPA” value in assay [3] and in [8] was 5 (5=81-100%) throughout. The “percentage damage caused to the plant, AMARE” value in [4] is listed as 5 (5=81-100%); in assay [9], 4 (4=61-80%). Also, the “percentage damage caused to the plant, ECHCG” value in assay [5] is listed as 5 (5=81-100%); in assay [10], 3 (3=41-60%).

Regarding `FC(F)(F)c1nc(-c2ncccn2)c2c(Oc3ncc(Cl)cn3)cccc2n1` [Compound 1.069], the “percentage damage caused to the plant, SETFA” value in the assay on Setaria faberi (SETFA) [1] and in the assay with Setaria faberi (SETFA) [6] was 1 (1=0-20%) each time. Besides, the “percentage damage caused to the plant, IPOHE” value in assay [2] and in [7] was 1 (1=0-20%) throughout. Also, the “percentage damage caused to the plant, AMAPA” value in assay [3] and in [8] was 1 (1=0-20%) each time. For the same compound, the “percentage damage caused to the plant, AMARE” value in assay [4] and in [9] was 1 (1=0-20%) throughout. The “percentage damage caused to the plant, ECHCG” value in [5] and in assay [10] was 1 (1=0-20%) in each case.

Turning to `O=C(c1ccc(Cl)cn1)c1nc(C(F)(F)F)nc2cccc(Oc3ncc(Cl)cn3)c12` [Compound 1.070], the “percentage damage caused to the plant, SETFA” value with Setaria faberi (SETFA) [1] and with Setaria faberi (SETFA) [6] was 1 (1=0-20%) each time. Further, the “percentage damage caused to the plant, IPOHE” value in [2] and in assay [7] was 1 (1=0-20%) throughout. Moreover, the entries for the “percentage damage caused to the plant, AMAPA” value in assay [3] and in assay [8] were 1 (1=0-20%) and 5 (5=81-100%), respectively. For the same compound, the figures for the “percentage damage caused to the plant, AMARE” value in [4] and in assay [9] were 2 (2=21-40%) and 5 (5=81-100%), respectively. Besides, the “percentage damage caused to the plant, ECHCG” value in assay [5] and in assay [10] was 1 (1=0-20%) throughout.

Turning to `FC(F)(F)CCC(Br)c1nc(C(F)(F)F)nc2cccc(Oc3ncc(Cl)cn3)c12` (centres unmarked) [Compound 1.071], the “percentage damage caused to the plant, SETFA” value in the assay with Setaria faberi (SETFA) [1] is reported as 4 (4=61-80%); in the assay with Setaria faberi (SETFA) [6] it was 5 (5=81-100%). The “percentage damage caused to the plant, IPOHE” value in assay [2] is 3 (3=41-60%); in assay [7] it was 1 (1=0-20%). Moreover, the “percentage damage caused to the plant, AMAPA” value in [3] and in assay [8] was 5 (5=81-100%) in each case. The “percentage damage caused to the plant, AMARE” value in assay [4] and in [9] was 5 (5=81-100%) each time. Moreover, the “percentage damage caused to the plant, ECHCG” value in [5] and in [10] was 5 (5=81-100%) each time.
